Test results published in patent publication US7038033B2, “Nematode neuromuscular junction GABA receptors subunits” (University of Utah Research Foundation, priority 1998, dated 2006).

Key:
[1] = molecular target: UNC-49B homomeric GABA receptor (Caenorhabditis elegans, UniProt G5EEY3); test: Two-electrode voltage clamp of Xenopus oocytes injected with UNC-49B.1 mRNA; type: cell-based, C. elegans; conditions: for response of oocytes to agonist: applied at 1 mM or 10 mM
Protocol: (§1) Oocytes were removed from Xenopus laevis frogs anesthetized by immersion in 0.2% tricaine for 15-30 minutes. Harvested ovarian lobes were defolliculated by incubation in 2 mg/ml of collagenase (Type IA, Sigma) for 2 hours at room temperature on an orbital shaker in calcium-free ND-96 solution containing in mM: 96 NaCl, 2 KCl, 1 MgCl2, and 5 HEPES (pH=7.6). The oocytes were rinsed 5-6 times with a Barth's solution that contained (in mM): 88 NaCl, 1 KCl, 0.41 CaCl2, 0.33 Ca(NO3)2, 1 MgSO4, 2.4 NaHCO3 and 10 HEPES (pH=7.4), and selected stage V-VI oocytes were stored at 18C in Barth's solution supplemented with 1 mM Na-Pyruvate, 0.01 mg/ml gentamycin and an antibiotic-antimycotic solution containing 100 units/ml of penicillin, 100 μg/ml streptomycin and 0.25 μg/ml of Amphotericin B (Gibco BRL).
(§2) Oocytes were injected with cRNA (prepared using the mMessage mMachine kit, Ambion) into the cytoplasm 24 hours later. Glass capillary tubes (World Precision Instruments) were pulled to a fine tip on a vertical micropipette puller (David Kopf) and broken back to an outside diameter of 21 μm. RNA stocks were diluted to a final concentration of 0.75 μg/μl and injected into the oocytes (32 nl) with a microinjector (World Precision Instruments).
(§3) Electrophysiological recordings were performed 3-7 days following injection and were carried out at room temperature in a control Ringers solution containing in mM: 115 NaCl, 2.5 KCl, 1.0 BaCL2, and 10 HEPES (pH=7.4). Two electrode voltage clamp recordings were obtained with a Geneclamp amplifier (Axon Instruments) using […] KCl-filled microelectrodes (1-5 M). Recordings were carried out at a holding potential of −60 mV. Concentration-effect data were fit to the logistic equation: I=Imax/{1+(EC50/[agonist])^nH}, where Imax is the maximal current, [agonist] is the concentration, EC50 is the concentration of agonist resulting in half maximal activation and nH is an empirical parameter describing the steepness of fit and having the same meaning as the Hill coefficient. NFIT (Island Products) was used for non-linear curve fitting. Data are presented as the mean S.E.M.; n is the number of oocytes tested. All combinations of subunits were tested in parallel in at least two independent experiments (at least 4 oocytes for each combination of mRNAs per experiment). The effect of incorporating the UNC-49C subunit was consistent from one experiment to another. Single channel recordings were performed as described in except that 1 mM GABA was applied continuously. Single channel conductance was determined by fitting Gaussian curves to all points histograms.

UNC-49C = test: Two-electrode voltage clamp of Xenopus oocytes injected with UNC-49C RNA; type: cell-based, C. elegans; conditions: any concentration
Protocol: as §1, §2, §3

[2] = molecular target: UNC-49B/C heteromeric GABA receptor (Caenorhabditis elegans, UniProt G5EE10+G5EEY3); test: Two-electrode voltage clamp of Xenopus oocytes injected with equal amounts of UNC-49B and UNC-49C RNA; type: cell-based; conditions: Xenopus oocytes co-expressing UNC-49B and UNC-49C
Protocol: as §1
Oocytes were injected with cRNA (prepared using the mMessage mMachine kit, Ambion) into the cytoplasm 24 hours later. […]
Electrophysiological recordings were performed 3-7 days following injection and were carried out at room temperature in a control Ringers solution containing in mM: 115 NaCl, 2.5 KCl, 1.0 BaCL2, and 10 HEPES (pH=7.4). […] Single channel conductance was determined by fitting Gaussian curves to all points histograms.

Sequence of UNC-49B homomeric GABA receptor (G5EEY3 entry or part of it): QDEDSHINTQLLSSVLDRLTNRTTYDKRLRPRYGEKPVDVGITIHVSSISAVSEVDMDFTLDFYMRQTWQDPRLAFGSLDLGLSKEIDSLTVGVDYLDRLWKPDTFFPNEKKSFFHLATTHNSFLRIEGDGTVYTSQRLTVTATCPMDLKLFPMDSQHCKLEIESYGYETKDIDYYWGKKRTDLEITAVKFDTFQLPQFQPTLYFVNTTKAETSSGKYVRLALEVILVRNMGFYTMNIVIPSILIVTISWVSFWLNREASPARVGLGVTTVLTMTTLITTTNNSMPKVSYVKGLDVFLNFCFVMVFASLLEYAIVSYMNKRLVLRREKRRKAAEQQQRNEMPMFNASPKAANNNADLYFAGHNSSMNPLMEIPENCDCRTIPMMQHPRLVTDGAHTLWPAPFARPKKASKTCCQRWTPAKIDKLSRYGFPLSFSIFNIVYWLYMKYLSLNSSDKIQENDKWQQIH
Sequence of UNC-49B/C heteromeric GABA receptor (G5EE10 entry or part of it): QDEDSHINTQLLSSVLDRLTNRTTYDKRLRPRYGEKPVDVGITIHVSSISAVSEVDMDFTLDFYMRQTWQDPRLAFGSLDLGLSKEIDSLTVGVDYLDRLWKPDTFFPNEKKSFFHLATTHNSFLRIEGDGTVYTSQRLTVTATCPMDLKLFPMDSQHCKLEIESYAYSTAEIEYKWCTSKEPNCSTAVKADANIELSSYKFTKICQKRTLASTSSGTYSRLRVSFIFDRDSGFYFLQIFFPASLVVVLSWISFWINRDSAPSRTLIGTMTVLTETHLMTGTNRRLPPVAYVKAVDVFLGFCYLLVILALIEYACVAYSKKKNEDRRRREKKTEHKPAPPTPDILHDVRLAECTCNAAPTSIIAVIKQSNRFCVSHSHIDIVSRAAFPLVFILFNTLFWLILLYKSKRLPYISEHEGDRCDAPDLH
Sequence of UNC-49B/C heteromeric GABA receptor (G5EEY3 entry or part of it): as the sequence (G5EEY3 entry or part of it) above

SMILES | response of oocytes to agonist ([1]; UNC-49B-expressing oocytes) | response of oocytes to agonist (UNC-49C) | currents produced by agonist ([1]; UNC-49B-expressing oocytes, 10 mM, n=4) | current when exposed to agonist ([1]; UNC-49B.1-injected Xenopus oocytes) | EC50 ([1]; UNC-49B.1-injected Xenopus oocytes, holding potential -60 mV, representative experiment, read-out: GABA concentration required to produce half-maximal channel activity (EC50)) | Hill coefficient ([1]; UNC-49B.1-injected Xenopus oocytes, representative experiment) | EC50 [2] | Hill coefficient [2]
NCC(=O)O [glycine] | did not respond | equally unresponsive |  |  |  |  |  | 
NCCC(=O)O [β-alanine] |  | equally unresponsive | only slightly greater than baseline noise |  |  |  |  | 
N[C@@H](CCC(=O)O)C(=O)O [glutamate] | did not respond | equally unresponsive |  |  |  |  |  | 
NCCCC(=O)O [GABA, gamma-aminobutyric acid] |  | failed to respond |  | robust, desensitizing, dose-dependent current | 43.7 µM | 2.94 | 108 µM | 1.33
